# Test system: peroxidase
# Test: Activity of the isolated peroxidase towards various hydrogen donors
# Assay type: biochemical, Coprinus cinereus IFO 30116
# Conditions: not given
# Protocol: Its action is shown by the followina reaction formula: [drawing 2] where AH2 is a hydrogen donor, and A is the oxidized hydrogen donor.
# The enzyme was assayed for activity with respect to a variety of hydrogen donors.
# Values snown in Taoie 2 are relative ones with that of phenol set at 100%.
row,Molecule,Strength of Action [%]
1,Cc1cc(-c2ccc(N)c(C)c2)ccc1N [o-tolidine],5400

# Same assay, conditions: relative values with that of phenol set at 100%; peroxidase of Coprinus cinereus IFO 30116
row,Molecule,Strength of Action
1,Oc1ccccc1O [Catechol],460%
2,COc1ccccc1O [Guaiacol],200%
3,Oc1ccc(O)cc1 [Hydroquinone],57%
4,Oc1ccccc1 [Phenol],100 (%)
5,Oc1cccc(O)c1 [Resorcinol],0%
6,COc1cc(-c2ccc(N)c(OC)c2)ccc1N [o-dianisidine],5400%
7,Oc1cccc2ccccc12 [α-naphthol],1200%
8,δ-hydroquinon,57%
